Experimental data from PubChem BioAssay AID330 (DTP/NCI, 2004).
“And” between values parts separate entries of the source, which are not always exact repeats. Equal entries are not always repeated. Inconclusive results and toxic doses are left out. The calls were made as follows: active = survival T/C of 150% or more; inactive = T/C below 125% in these data.

Tested on: P388 leukemia ip, CD2F1 mice, survival T/C
Assay: NCI In Vivo Anticancer Drug Screen. Data for tumor model P388 Leukemia (intraperitoneal) in CD2F1 (CDF1) mice
Settings: endpoint: median survival time, higher = longer survival
In short: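 Mice carrying the transplanted tumor received test compound or vehicle. Survival was recorded in each group, and the value is the treated-group measurement divided by that of the vehicle-treated control group.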

[1] = dose: 50.0 mg/kg/injection, schedule: Q01DX009 (ip), vehicle: saline with Tween-80
[2] = dose: 100.0 mg/kg/injection, schedule: Q01DX009 (ip), vehicle: saline with Tween-80
[3] = dose: 200.0 mg/kg/injection, schedule: Q01DX009 (ip), vehicle: saline with Tween-80
[4] = dose: 50.0 mg/kg/injection, schedule: Q01DX005 (ip), vehicle: Klucel (hydroxypropylcellulose) (HPC)
[5] = dose: 100.0 mg/kg/injection, schedule: Q01DX005 (ip), vehicle: Klucel (hydroxypropylcellulose) (HPC)
[6] = dose: 200.0 mg/kg/injection, schedule: Q01DX005 (ip), vehicle: Klucel (hydroxypropylcellulose) (HPC)
[7] = dose: 50.0 mg/kg/injection, schedule: Q01DX009 (ip), vehicle: Klucel (hydroxypropylcellulose) (HPC)
[8] = dose: 100.0 mg/kg/injection, schedule: Q01DX009 (ip), vehicle: Klucel (hydroxypropylcellulose) (HPC)
[9] = dose: 200.0 mg/kg/injection, schedule: Q01DX009 (ip), vehicle: Klucel (hydroxypropylcellulose) (HPC)

Measured: T/C

COc1cccc2c1C(=O)c1c(O)c3c(c(O)c1C2=O)CC(O)(C(=O)C(C)C)CC3OC1CC(N)C(O)C(C)O1 (stereo not given)
inactive: dose: 3.13 mg/kg/injection, schedule: Q01DX009 (ip), vehicle: water 117 % of control | dose: 4.7 mg/kg/injection, schedule: Q04DX003 (ip), vehicle: water 115 % of control | dose: 6.25 mg/kg/injection, schedule: Q01DX009 (ip), vehicle: water 117 % of control | dose: 9.4 mg/kg/injection, schedule: Q04DX003 (ip), vehicle: water 110 % of control | dose: 18.8 mg/kg/injection, schedule: Q04DX003 (ip), vehicle: water 101 % of control | dose: 75.0 mg/kg/injection, schedule: Q04DX003 (ip), vehicle: water 92 % of control

COC(=O)Nc1cnc(C(=O)O)c(C)c1-c1ccc(OC)c(OC)c1OCc1ccccc1
inactive: dose: 12.5 mg/kg/injection, schedule: Q01DX009 (ip), vehicle: other 97 % of control | dose: 25.0 mg/kg/injection, schedule: Q01DX009 (ip), vehicle: other 100 % of control | dose: 50.0 mg/kg/injection, schedule: Q01DX009 (ip), vehicle: other 102 % of control | dose: 100.0 mg/kg/injection, schedule: Q01DX009 (ip), vehicle: other 101 % of control | dose: 200.0 mg/kg/injection, schedule: Q01DX009 (ip), vehicle: other 103 % of control

CCC(C)P(=O)(N1CC1C)N1CC1C (stereo not given)
inactive: dose: 1.5 mg/kg/injection, schedule: Q01DX009 (ip), vehicle: saline 104 % of control | dose: 3.0 mg/kg/injection, schedule: Q01DX009 (ip), vehicle: saline 109 % of control | dose: 6.0 mg/kg/injection, schedule: Q01DX009 (ip), vehicle: saline 109 % of control | dose: 12.5 mg/kg/injection, schedule: Q04DX003 (ip), vehicle: saline 95 % of control | dose: 25.0 mg/kg/injection, schedule: Q04DX003 (ip), vehicle: saline 95 % of control | dose: 50.0 mg/kg/injection, schedule: Q04DX003 (ip), vehicle: saline 113 % of control

CCCCOCC(=O)OC
inactive: [1] 102 % of control | [2] 102 % of control | [3] 107 % of control

NC(=O)NC1OC(CO)C(O)C(O)C1O (stereo not given)
inactive: dose: 100.0 mg/kg/injection, schedule: Q04DX003 (ip), vehicle: saline 95 % of control | dose: 200.0 mg/kg/injection, schedule: Q04DX003 (ip), vehicle: saline 95 % of control | dose: 400.0 mg/kg/injection, schedule: Q04DX003 (ip), vehicle: saline 100 % of control

Cc1ccc(C)c2c1[nH]c1c(C)c3ccncc3c(C)c12
inactive: dose: 100.0 mg/kg/injection, schedule: Q01DX001 (ip), vehicle: saline with Tween-80 100 % of control | dose: 200.0 mg/kg/injection, schedule: Q01DX001 (ip), vehicle: saline with Tween-80 104 % of control | dose: 400.0 mg/kg/injection, schedule: Q01DX001 (ip), vehicle: saline with Tween-80 120 % of control

Cc1cc2c(C#N)c3ccccc3c(=O)n2c2ccccc12
inactive: [4] 98 % of control | [5] 96 % of control | [6] 100 % of control

CC(c1ccccc1)C1CC1 (stereo not given)
inactive: [1] 103 % of control | [2] 107 % of control | [3] 98 % of control

COc1ccccc1-n1c(=O)c(N=Nc2ccccc2)c(O)n(-c2ccccc2Cl)c1=S
inactive: dose: 100.0 mg/kg/injection, schedule: Q01DX001 (ip), vehicle: Klucel (hydroxypropylcellulose) (HPC) 97 % of control | dose: 200.0 mg/kg/injection, schedule: Q01DX001 (ip), vehicle: Klucel (hydroxypropylcellulose) (HPC) 95 % of control | dose: 400.0 mg/kg/injection, schedule: Q01DX001 (ip), vehicle: Klucel (hydroxypropylcellulose) (HPC) 94 % of control

CSCCn1ccnc1[N+](=O)[O-]
inactive: dose: 12.5 mg/kg/injection, schedule: Q01DX009 (ip), vehicle: distilled water + Tween-80 100 % of control | dose: 25.0 mg/kg/injection, schedule: Q01DX009 (ip), vehicle: distilled water + Tween-80 96 % of control | dose: 50.0 mg/kg/injection, schedule: Q01DX009 (ip), vehicle: distilled water + Tween-80 100 % of control | dose: 100.0 mg/kg/injection, schedule: Q01DX009 (ip), vehicle: distilled water + Tween-80 101 % of control | dose: 200.0 mg/kg/injection, schedule: Q01DX009 (ip), vehicle: distilled water + Tween-80 108 % of control

COc1ccc(CCN)cc1
inactive: dose: 50.0 mg/kg/injection, schedule: Q01DX009 (ip), vehicle: saline 101 % of control and 106 % of control

CCOCCOCCSCc1ccccn1
inactive: [4] 109 % of control | [5] 99 % of control | [6] 100 % of control

CN1C(=O)c2ccc3c4ccc5c(=O)n6c7ccccc7nc6c6ccc(c7ccc(c2c37)C1=O)c4c56
inactive: [4] 102 % of control | [5] 105 % of control | [6] 97 % of control

O=c1[nH]n(-c2ccccc2)c2ccccc12
inactive: dose: 12.5 mg/kg/injection, schedule: Q04DX003 (ip), vehicle: saline with Tween-80 94 % of control | dose: 25.0 mg/kg/injection, schedule: Q04DX003 (ip), vehicle: saline with Tween-80 90 % of control | dose: 50.0 mg/kg/injection, schedule: Q04DX003 (ip), vehicle: saline with Tween-80 90 % of control | dose: 100.0 mg/kg/injection, schedule: Q04DX003 (ip), vehicle: saline with Tween-80 95 % of control

O=C(Nc1nccs1)Nc1ccccc1C(F)(F)F
inactive: dose: 25.0 mg/kg/injection, schedule: Q01DX009 (ip), vehicle: Klucel (hydroxypropylcellulose) (HPC) 115 % of control | [7] 108 % of control | [8] 106 % of control | [2] 92 % of control | [9] 111 % of control | [3] 90 % of control | dose: 400.0 mg/kg/injection, schedule: Q01DX009 (ip), vehicle: saline with Tween-80 88 % of control

CN(C)CCC(=O)C(=Cc1cccs1)C(=O)CCN(C)C
inactive: dose: 60.0 mg/kg/injection, schedule: Q01DX005 (ip), vehicle: saline 101 % of control | dose: 120.0 mg/kg/injection, schedule: Q01DX005 (ip), vehicle: saline 98 % of control | dose: 240.0 mg/kg/injection, schedule: Q01DX005 (ip), vehicle: saline 106 % of control

Nc1nc2c(ncn2[C@@H](CO)OC(CO)CO)c(=O)[nH]1
inactive: [4] 99 % of control | [5] 98 % of control | [6] 98 % of control

CN1CCCc2c1n(-c1ccccc1)c(=O)n(-c1ccccc1)c2=O
inactive: [4] 100 % of control | [5] 101 % of control | [6] 99 % of control

COc1ccc(SS(=O)c2ccccc2)cc1 (stereo not given)
inactive: dose: 100.0 mg/kg/injection, schedule: Q04DX002 (ip), vehicle: saline with Tween-80 105 % of control | dose: 200.0 mg/kg/injection, schedule: Q04DX002 (ip), vehicle: saline with Tween-80 111 % of control | dose: 400.0 mg/kg/injection, schedule: Q04DX002 (ip), vehicle: saline with Tween-80 108 % of control

O=C1CCC(=O)N1CNCCc1cc(Cl)cc(Cl)c1O
inactive: [1] 102 % of control | [2] 103 % of control | [3] 94 % of control

CC(=O)/C(=C\c1ccc(/C=C(\C(C)=O)C(=O)CCN(C)C)cc1)C(=O)CCN(C)C
inactive: dose: 50.0 mg/kg/injection, schedule: Q01DX005 (ip), vehicle: saline with Tween-80 109 % of control and 118 % of control | dose: 100.0 mg/kg/injection, schedule: Q01DX005 (ip), vehicle: saline with Tween-80 120 % of control | dose: 200.0 mg/kg/injection, schedule: Q01DX005 (ip), vehicle: saline with Tween-80 105 % of control | dose: 400.0 mg/kg/injection, schedule: Q01DX005 (ip), vehicle: saline with Tween-80 120 % of control

CN(C)c1cc(N(C)C)c2cc(-c3ccccc3)sc2n1
inactive: [7] 98 % of control | [8] 103 % of control | [9] 96 % of control
